The source made the active and inactive calls. The rule behind the calls is not given here.

The first assay in a line: viability loss in LCL cells – cell-based, plate reader, dry powder, set 2, cytotoxicity control, dose response (AID 624367). Particulars: Lymphoblastoid cell line (LCL) cytotoxicity, plate reader; at 16 µM (top of the series).
As for `C[C@@H]1CN([C@H](C)CO)C(=O)Cc2cc(NC(=O)Cc3ccccc3)ccc2O[C@@H]1CN(C)Cc1ccc(C(F)(F)F)cc1`, the activity change, negative = cytotoxicity was 4.6% (inactive).

Staying with this assay, now noted: Lymphoblastoid cell line (LCL) cytotoxicity, plate reader; at 30 µM (top of the series).
On to `Cc1cc(C(=O)Nc2ccc3c(c2)C(=O)N(C)[C@@H]2CC[C@H](CC(=O)NCc4ccc(-c5ccccc5)cc4)O[C@H]2CO3)no1`, for which the activity change, negative = cytotoxicity was -7.18% (inactive).

The assay is the same for the next values; noted with them: Lymphoblastoid cell line (LCL) cytotoxicity, plate reader; at 35 µM (top of the series).
`COc1ccc(-c2cccc(-c3nc(C(=O)NCC(F)(F)F)cc4c3[C@H](CCO)N([S@@](=O)C(C)(C)C)C4)c2)cc1`: the activity change, negative = cytotoxicity was -13.3% (inactive). With `O=C(Cc1ccccn1)NCC[C@@H]1CC[C@@H](NC(=O)Nc2ccc(Cl)cc2)[C@H](CO)O1`, the activity change, negative = cytotoxicity was -2.4% (inactive). With `COc1ccccc1C#Cc1ccc2c(c1)O[C@H](CN(C)Cc1cccnc1)[C@H](C)CN([C@H](C)CO)S2(=O)=O`, the activity change, negative = cytotoxicity was -2.03% (inactive). For `CN1C(=O)c2cc(NC(=O)Cc3cccs3)ccc2OC[C@@H]2O[C@H](CC(=O)NCc3ccc(-c4ccccc4)cc3)CC[C@H]21`, the activity change, negative = cytotoxicity was -7.27% (inactive). Take `N#C[C@@H]1[C@H](c2ccc(C#Cc3ccccc3F)cc2)[C@@H](CO)N1C(=O)c1cccnc1`: the activity change, negative = cytotoxicity was -5.47% (inactive). Consider `CC(C)NC(=O)N1Cc2cc(C(=O)NC3Cc4ccccc4C3)nc(-c3cccc(-c4cccnc4)c3)c2[C@@H]1CCO`, for which the activity change, negative = cytotoxicity was 0.066% (inactive).

In the case of `COc1cccc(S(=O)(=O)N(C)C[C@@H]2Oc3cc(C4=CCCCC4)ccc3S(=O)(=O)N([C@@H](C)CO)C[C@@H]2C)c1`, the activity change, negative = cytotoxicity is -5.63% (inactive). For the compound `C[C@@H](NC(=O)C[C@H]1C=C[C@H](NC(=O)Cc2ccccn2)[C@@H](CO)O1)c1ccccc1`, the activity change, negative = cytotoxicity was -5.21% (inactive). On to `N#C[C@H]1[C@@H](c2ccc(-c3cccnc3)cc2)[C@@H](CO)N1C(=O)Nc1ccc(F)cc1`, for which the activity change, negative = cytotoxicity was 3.54% (inactive). On to `COc1ccccc1C#Cc1ccc2c(c1)O[C@H](CN(C)Cc1cccnc1)[C@H](C)CN([C@@H](C)CO)S2(=O)=O`, for which the activity change, negative = cytotoxicity is -1.62% (inactive). `COc1ccccc1C#Cc1cnc2c(c1)C(=O)N([C@@H](C)CO)C[C@H](C)[C@@H](CN(C)C(=O)c1ccc3c(c1)OCO3)O2`: the activity change, negative = cytotoxicity was 16.2% (inactive). Same read-out and setting: under `C[C@H](NC(=O)C[C@@H]1C=C[C@H](NC(=O)Cc2ccccn2)[C@@H](CO)O1)c1ccccc1` stands 4.27% (inactive); under `C[C@@H]1CN([C@@H](C)CO)C(=O)Cc2cc(NC(=O)Cc3ccccc3)ccc2O[C@@H]1CN(C)Cc1ccc(C(F)(F)F)cc1`, -0.78% (inactive). With `COc1ccccc1C#Cc1cnc2c(c1)C(=O)N([C@H](C)CO)C[C@H](C)[C@@H](CN(C)C(=O)c1ccc3c(c1)OCO3)O2`, the activity change, negative = cytotoxicity is 8.25% (inactive). On the same count and under the same terms, under `COc1cccc(-c2cccc(-c3nc(C(=O)NCC(F)(F)F)cc4c3[C@H](CCO)N([S@@](=O)C(C)(C)C)C4)c2)c1` stands -12.4% (inactive); under `COC(=O)C[C@H]1C[C@H]2c3cc(NC(=O)CN(C)C)ccc3O[C@H]2[C@H](CO)O1`, 3.27% (inactive). Turning to `CC(C)(C)[S@@](=O)N1Cc2cc(C(=O)NCCc3ccncc3)nc(-c3cccc(-c4cccnc4)c3)c2[C@H]1CCO`, the activity change, negative = cytotoxicity was 4.85% (inactive). Same read-out and setting: under `CC(C)(C)[S@@](=O)N1Cc2cc(C(=O)NCc3ccccc3F)nc(-c3cccc(-c4ccncc4)c3)c2[C@H]1CCO` stands 0.812% (inactive); under `C[C@H]1CN([C@@H](C)CO)C(=O)c2c(c3ccccc3n2C)-c2ccccc2CO[C@H]1CN(C)C(=O)Nc1ccc(F)cc1`, 0.119% (inactive); under `Cc1noc(C)c1S(=O)(=O)Nc1ccc2c(c1)C(=O)N([C@@H](C)CO)C[C@@H](C)[C@@H](CN(C)Cc1ccc(C(F)(F)F)cc1)OCCCC[C@@H](C)O2`, -5.16% (inactive).

Take `O=C(C[C@@H]1C[C@@H]2c3cc(NS(=O)(=O)c4ccc(F)cc4)ccc3O[C@@H]2[C@H](CO)O1)NC1CCCCC1`: the activity change, negative = cytotoxicity is 0.429% (inactive). The same measure, in the same setting: under `COc1ccccc1C#Cc1ccc([C@H]2[C@H](C#N)N(C(=O)C3CC3)[C@H]2CO)cc1` stands -4.85% (inactive). Turning to `Cc1ccc(S(=O)(=O)N(C)C[C@H]2Oc3cc(C#Cc4ccncc4)ccc3S(=O)(=O)N([C@@H](C)CO)C[C@@H]2C)cc1`, the activity change, negative = cytotoxicity is 8.38% (inactive). Take `O=C(C[C@H]1C[C@@H]2c3cc(NC(=O)c4ccc5c(c4)OCO5)ccc3O[C@@H]2[C@@H](CO)O1)NCc1ccc(Oc2ccccc2)cc1`: the activity change, negative = cytotoxicity is -5.15% (inactive). With `C[C@@H](NC(=O)C[C@H]1C=C[C@@H](NC(=O)Cc2ccccn2)[C@@H](CO)O1)c1ccccc1`, the activity change, negative = cytotoxicity is -7.23% (inactive). With `C[C@H](CO)N1C[C@H](C)[C@H](CN(C)Cc2ccc(Oc3ccccc3)cc2)Oc2ccc(NC(=O)CCCN(C)C)cc2C1=O`, the activity change, negative = cytotoxicity is -0.446% (inactive). For the compound `O=C(C[C@@H]1C[C@H]2c3cc(NC(=O)c4ccc5c(c4)OCO5)ccc3O[C@H]2[C@H](CO)O1)NC1CCCCC1`, the activity change, negative = cytotoxicity was -16.7% (inactive).

Turning to `COc1cccc(S(=O)(=O)N(C)C[C@H]2Oc3cc(C4=CCCCC4)ccc3S(=O)(=O)N([C@H](C)CO)C[C@H]2C)c1`, the activity change, negative = cytotoxicity is -4.62% (inactive).

Regarding `COc1cccc(C(=O)Nc2ccc3c(c2)C(=O)N(C)C[C@H](OC)[C@@H](C)CN(CCc2ccccc2)[C@@H](C)CO3)c1`, the activity change, negative = cytotoxicity was -13% (inactive).

For `N#C[C@H]1[C@H](c2ccc(C#Cc3ccccc3F)cc2)[C@@H](CO)N1C(=O)c1cccnc1`, the activity change, negative = cytotoxicity was 3.23% (inactive).

For the compound `COc1ccc(S(=O)(=O)N(C)C[C@@H]2Oc3ncc(/C=C/c4ccccc4)cc3C(=O)N([C@@H](C)CO)C[C@H]2C)cc1`, the activity change, negative = cytotoxicity was -4% (inactive).

Regarding `C[C@@H](NC(=O)C[C@@H]1C=C[C@@H](NC(=O)Cc2ccccn2)[C@H](CO)O1)c1ccccc1`, the activity change, negative = cytotoxicity was 0.18% (inactive). Turning to `C[C@@H]1CN([C@@H](C)CO)C(=O)c2c(c3ccccc3n2C)-c2ccccc2CO[C@@H]1CN(C)C(=O)Nc1ccc(F)cc1`, the activity change, negative = cytotoxicity is -5.86% (inactive). `O=C(C[C@@H]1CC[C@@H]2[C@H](COC[C@@H](O)CN2Cc2ccc(Oc3ccccc3)cc2)O1)N1CCc2ccccc2C1`: the activity change, negative = cytotoxicity is -13.2% (inactive). On to `C[C@@H](NC(=O)C[C@H]1C=C[C@@H](NC(=O)Cc2ccccn2)[C@H](CO)O1)c1ccccc1`, for which the activity change, negative = cytotoxicity is -1.43% (inactive). Still for that read-out and setting: under `Cc1noc(C)c1S(=O)(=O)Nc1ccc2c(c1)C(=O)N([C@@H](C)CO)C[C@H](C)[C@@H](CN(C)Cc1ccc(C(F)(F)F)cc1)OCCCC[C@@H](C)O2` stands -4.06% (inactive). `C[C@H](NC(=O)C[C@H]1C=C[C@@H](NC(=O)Cc2ccccn2)[C@H](CO)O1)c1ccccc1`: the activity change, negative = cytotoxicity is 9.63% (inactive). Regarding `Cc1cc(C(=O)Nc2ccc3c(c2)C(=O)N(C)[C@@H]2CC[C@@H](CC(=O)NCc4ccc(-c5ccccc5)cc4)O[C@H]2CO3)no1`, the activity change, negative = cytotoxicity was -5.25% (inactive). In the case of `CN(C)C(=O)c1ccc(-c2cccc(-c3nc(C(=O)NCc4ccccc4)cc4c3[C@@H](CCO)N([S@](=O)C(C)(C)C)C4)c2)cc1`, the activity change, negative = cytotoxicity is -1.5% (inactive). Take `O=C(Cc1ccccn1)NCC[C@H]1CC[C@@H](NC(=O)Nc2ccc(Cl)cc2)[C@H](CO)O1`: the activity change, negative = cytotoxicity is -1.08% (inactive). In the case of `CC(C)(C)[S@@](=O)N1Cc2cc(C(=O)NCc3ccccc3F)nc(-c3cccc(-c4cccnc4)c3)c2[C@H]1CCO`, the activity change, negative = cytotoxicity is -3.02% (inactive). For the compound `CC(C)NC(=O)N1Cc2cc(C(=O)NC3Cc4ccccc4C3)nc(-c3cccc(-c4cccnc4)c3)c2[C@H]1CCO`, the activity change, negative = cytotoxicity was -2.11% (inactive).

Take `C[C@H](CO)N1C[C@H](C)[C@@H](CN(C)S(=O)(=O)c2cccc(F)c2)Oc2ncc(C#CC3CCCCC3)cc2C1=O`: the activity change, negative = cytotoxicity is 4.17% (inactive). In the case of `Cc1noc(C)c1S(=O)(=O)Nc1ccc2c(c1)C(=O)N([C@@H](C)CO)C[C@@H](C)[C@H](CN(C)Cc1ccc(C(F)(F)F)cc1)OCCCC[C@@H](C)O2`, the activity change, negative = cytotoxicity was -6.19% (inactive).

For `O=C(C[C@@H]1CC[C@@H]2[C@H](COC[C@H](O)CN2Cc2ccc3c(c2)OCO3)O1)Nc1ccc(-c2ccccc2)cc1`, the activity change, negative = cytotoxicity is -4.84% (inactive).

On to `C[C@H](CO)N1C[C@H](C)[C@@H](CN(C)Cc2ccc(C(F)(F)F)cc2)Oc2ccc(NC(=O)Cc3ccccc3)cc2CC1=O`, for which the activity change, negative = cytotoxicity is -0.272% (inactive).

Turning to `COC(=O)C[C@@H]1C[C@@H]2c3cc(NC(=O)CN(C)C)ccc3O[C@@H]2[C@@H](CO)O1`, the activity change, negative = cytotoxicity is -2.96% (inactive).

As for `O=C(Cc1ccccn1)NCC[C@H]1CC[C@H](NC(=O)Nc2ccc(Cl)cc2)[C@H](CO)O1`, the activity change, negative = cytotoxicity was 7.55% (inactive).

As for `CN1C(=O)c2cc(NC(=O)c3ccc(C(F)(F)F)cc3)ccc2OC[C@@H]2O[C@H](CC(=O)NC3Cc4ccccc4C3)CC[C@H]21`, the activity change, negative = cytotoxicity was -1.04% (inactive). Consider `O=C(C[C@H]1C[C@@H]2c3cc(NS(=O)(=O)c4ccc(F)cc4)ccc3O[C@@H]2[C@H](CO)O1)NC1CCCCC1`, for which the activity change, negative = cytotoxicity is 0.09% (inactive). For `COc1ccc(CNC(=O)c2cc3c(c(-c4cccc(-c5ccc(C#N)cc5)c4)n2)[C@@H](CCO)N([S@](=O)C(C)(C)C)C3)cc1`, the activity change, negative = cytotoxicity was -0.743% (inactive). The same measure, in the same setting: as for `CN1C(=O)c2cc(NC(=O)c3ccc(C(F)(F)F)cc3)ccc2OC[C@@H]2O[C@@H](CC(=O)NC3Cc4ccccc4C3)CC[C@H]21`, the figure is -7.43% (inactive); as for `COc1ccccc1C(=O)Nc1ccc2c(c1)C(=O)N(C)[C@@H]1CC[C@H](CC(=O)NCCc3ccncc3)O[C@H]1CO2`, 0.764% (inactive).

The record behind these values is PubChem BioAssay AID624367 (Broad Institute, 2012).
